Read-outs that look alike come from different tables or passages of the source.
Columns and labels:
Ixodes ricinus = assay: In vitro contact test with adult hard ticks (Ixodes ricinus); details: read-out: acaricidal activity
How it was run: (§1)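 Adult R. sanguineus, I. ricinus, D. variabilis or A. americanum nymphs exposed in glass vials coated with compound from acetone (900 ppm gives 5 μg/cm^2). Held 48 h at room temperature (R. sanguineus) or 21° C., 85% rel. hum.; then heated at 45-50° C. ≤5 min, motionless or uncoordinated ticks scored dead/moribund.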

Dermacentor variabilis [1] = assay: Systemic treatment in-vivo test with American dog tick nymph on rats; details: Dermacentor variabilis, ip, intraperitoneal injection
Procedure: Systemic Treatment In-Vivo Test with American Dog Tick Nymph and Cat Flea on Rats
Type of study and overall study design: The method is a randomized non-blinded efficacy study in accordance with European animal welfare requirements. Rats (Rattus norvegicus) were randomized based on pre-treatment flea counts. The efficacy of treatment was determined by comparison of the flea and tick counts of different treatment groups versus the placebo-treated control group. The experimental unit was the individual study animal. Method and route of administration: The compound was applied in a suitable solvent and carrier (more specifically, added to glycerol formal; in case of poorly soluble compounds, a solvent mixture with up to 25% by volume of N-methyl pyrrolidone may be used.) considering the individual body weight as an intraperitoneal injection.
(§2) Experimental infestation: On the day of treatment and weekly thereafter, 30 ticks (D. variabilis nymphs) were released onto the back of each rat, and 30 fleas (C. felis) were released onto the back of each rat 24 h later.
(§3) Tick and Flea counting: Rats were thoroughly examined and ticks and fleas were manually removed 48 h (±4 h) after tick infestation and 24 h after flea infestation. Live fleas and live attached engorged ticks were counted. In non-evident cases, engorgement status was evaluated by squeezing the tick on a filter paper to find traces of blood as sign for engorgement.

Dermacentor variabilis [2] = assay: Topical treatment in-vivo test with American dog tick nymph on rats; details: topical spot-on, 25 mg/kg
Procedure: (§4) Topical Treatment In-Vivo Test with American Dog Tick Nymph and Cat Flea on Rats
(§5) Type of study and overall study design: The method is a randomized non-blinded efficacy study in accordance with European animal welfare requirements. Rats (Rattus norvegicus) were randomized based on pre-treatment flea counts. The efficacy of treatment was determined by comparison of the flea and tick counts of different treatment groups versus the placebo-treated control group. The experimental unit was the individual study animal.
(§6) Method and route of administration: The compound was applied in a suitable solvent and carrier (more specifically, added to the following mixture: 33.3% by weight propylene carbonate, […] N-methylpyrrolidone, 0.1% by weight BHA, 0.05% by weight BHT) considering the individual body weight as topical spot-on between the shoulder blades directly onto the skin.
as §2
as §3, with “(+4” for “(±4”

[3] = system: Rhipicephalus (Boophilus) microplus; assay: In vitro injection test with Rhipicephalus (Boophilus) microplus (BOOPMI Inj); details: 168 h, laid fertile eggs after 7 days, read-out: acaricidal activity
How it was run: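 Test substance in DMSO; 1 μl injected into abdomen of each of 5 engorged adult female ticks, then held at 28° C., 85% rel. hum. Activity scored after 7 days from laying of fertile eggs: 100% = no eggs or all infertile, 0% = all eggs fertile.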

Ctenocephalides felis = assay: Topical treatment in-vivo test with cat flea on rats; details: topical spot-on, 25 mg/kg
Procedure: as §4, §5, §6, §2
as §3, with “(+4” for “(±4”

Amblyomma americanum = assay: In vitro contact test with hard ticks (Amblyomma americanum nymphs); details: read-out: acaricidal activity
How it was run: as §1

[4] = SD 2, read-out: Geometric mean percent reduction in live tick (Dermacentor variabilis) counts compared to untreated control rats
[5] = SD 9, read-out: Geometric mean percent reduction in live tick (Dermacentor variabilis) counts compared to untreated control rats
[6] = SD 16, read-out: Geometric mean percent reduction in live tick (Dermacentor variabilis) counts compared to untreated control rats
[7] = SD 23, read-out: Geometric mean percent reduction in live tick (Dermacentor variabilis) counts compared to untreated control rats

## O=C(Nc1cccc(C(=O)Nc2c(I)cc(C(F)(C(F)(F)F)C(F)(F)F)cc2C(F)(F)F)c1F)c1ccc(C(F)(F)F)nc1 [Compound 67, N-(2-fluoro-3-((2-iodo-4-(perfluoropropan-2-yl)-6-(trifluoromethyl)phenyl)carbamoyl)phenyl)-6-(trifluoromethyl)nicotinamide]
Ixodes ricinus; dose 0.2 μg/cm^2, 48 h
  pest or weed control at 0.2 µg/cm2, 0.2 µg/cm2: 90%
Ixodes ricinus; dose 1 μg/cm^2, 48 h
  pest or weed control at 1 µg/cm2, 1 µg/cm2: 90%
Ixodes ricinus; dose 5 μg/cm^2, 48 h
  pest or weed control at 5 µg/cm2, 5 µg/cm2: 90%
Dermacentor variabilis [1]; [4]
  inhibition in vivo at 2 mg/kg: 100%
  inhibition in vivo at 10 mg/kg: 100%
Dermacentor variabilis [1]; [5]
  inhibition in vivo at 2 mg/kg: 95%
  inhibition in vivo at 10 mg/kg: 100%
Dermacentor variabilis [1]; [6]
  inhibition in vivo at 2 mg/kg: 32%
  inhibition in vivo at 10 mg/kg: 99%
Dermacentor variabilis [1]; [7]
  inhibition in vivo at 2 mg/kg: 20%
  inhibition in vivo at 10 mg/kg: 75%
Dermacentor variabilis [1]; SD 30, read-out: Geometric mean percent reduction in live tick (Dermacentor variabilis) counts compared to untreated control rats
  inhibition in vivo at 10 mg/kg: 57%
Dermacentor variabilis [2]; SD 2
  Geometric mean percent reduction in live tick (Dermacentor variabilis) counts compared to untreated control rats: 57%
Dermacentor variabilis [2]; SD 9
  Geometric mean percent reduction in live tick (Dermacentor variabilis) counts compared to untreated control rats: 98%
Dermacentor variabilis [2]; SD 16
  Geometric mean percent reduction in live tick (Dermacentor variabilis) counts compared to untreated control rats: 100%
Dermacentor variabilis [2]; SD 23
  Geometric mean percent reduction in live tick (Dermacentor variabilis) counts compared to untreated control rats: 100%
Dermacentor variabilis [2]; SD 30
  Geometric mean percent reduction in live tick (Dermacentor variabilis) counts compared to untreated control rats: 77%
[3]; dose 0.16 μg/animal injected
  pest or weed control at 0.00016 mg: 100%
[3]; dose 0.8 μg/animal injected
  pest or weed control at 0.0008 mg: 100%
Ctenocephalides felis; SD 2
  Geometric mean percent reduction in live flea (Ctenocephalides felis) counts compared to untreated control rats: 98%
Ctenocephalides felis; SD 9
  Geometric mean percent reduction in live flea (Ctenocephalides felis) counts compared to untreated control rats: 93%
Ctenocephalides felis; SD 16
  Geometric mean percent reduction in live flea (Ctenocephalides felis) counts compared to untreated control rats: 97%
Ctenocephalides felis; SD 23
  Geometric mean percent reduction in live flea (Ctenocephalides felis) counts compared to untreated control rats: 81%
Ctenocephalides felis; SD 30
  Geometric mean percent reduction in live flea (Ctenocephalides felis) counts compared to untreated control rats: 79%
Amblyomma americanum; dose 0.2 μg/cm^2, 48 h
  pest or weed control at 0.2 µg/cm2, 0.2 µg/cm2: 90%
Amblyomma americanum; dose 1 μg/cm^2, 48 h
  pest or weed control at 1 µg/cm2, 1 µg/cm2: 90%

— patent publication US11696913B2, “Prolonged ectoparasite-controlling agent for animal” (MITSUI CHEMICALS AGRO, INC., priority 2017, dated 2023)
